{"source": "patent US6656690B2", "about": "“Mass spectrometric methods for biomolecular screening” (priority 1998, dated 2003)", "key": {"16S A site 27mer RNA": {"system": "16S A site 27mer RNA", "experiment": "ESI-FTICR mass spectrometric (MASS) binding assay, 16S A-site 27-mer RNA model", "parameters": "species or system prokaryotic", "details": "for complexes observed with 16S (in words): aminoglycosides 500 nM each, mixture with untagged 16S and tagged 18S", "method": "(§1) The ESI-FTICR mass spectrum depicted in FIG. 26 was acquired from a […] mixture of untagged 16S and tagged 18S in the presence of an equimolar mixture of five aminoglycosides. It is to be understood that other biomolecules may be used in place of the aminoglycosides. The aminoglycosides have been selected from two classes of 2-deoxystreptamines: 4,5-disubstituted (paromomycin, and lividomycin), and 4,6-disubstituted (tobramycin, sisomicin, and bekanamycin), present at 500 nM each. Complexes corresponding to 1:1 binding of individual aminoglycosides were observed between 16S and all members of the aminoglycoside mixture, with the apparent affinities estimated from the abundances of the respective complexes differing substantially. Signal intensities from the complexes with paromomycin (m/z 1925.572) and lividomycin (m/z 1954.790) are consistent with MS-measured dissociation constants of 110 nM and 28 nM, respectively. The intensities of 16S complexes with tobramycin (m/z 1895.960), bekanamycin (m/z 1899.171), and sisomicin (m/z 1891.972) were reduced, consistent with solution dissociation constants of […]. Wang, et al., Biochemistry, 1997, 36, 768-779. […] The spectrum is calibrated using multiple isotope peaks of the (M-5H^+)^5− and (M-4H^+)^4− charge states of the free RNA as internal mass standards which brackets the m/z range in which complexes are observed. The average mass measurement error obtained for the complexes in FIG. 26 is 2.1 ppm when m/z differences are measured between the most abundant (4 ^13C) isotope peak of 16S and each complex. This post calibration scheme is easily automated which enables rapid, high precision mass measurements of affinity selected ligands against multiple targets in a high throughput mode.\nA preferred first step of MASS screening involves mixing the RNA target (or targets) with a combinatorial library of ligands designed to bind to a specific site on the target molecule(s). Specific noncovalent complexes formed in solution between the target(s) and any library members are transferred into the gas phase and ionized by ESI. As described herein, from the measured mass difference between the complex and the free target, the identity of the binding ligand can be determined. The dissociation constant of the complex can be determined in two ways: if a ligand with a known binding affinity for the target is available, a relative Kd can be measured by using the known ligand as an internal control and measuring the abundance of the unknown complex to the abundance of the control, alternatively, if no internal control is available, Kd's can be determined by making a series of measurements at different ligand concentrations and deriving a Kd value from the “titration” curve.\nElectrospray ionization Fourier transform ion cyclotron resonance mass spectrometry was performed on a solution containing […] 16S RNA (the 27-mer construct shown in FIG. 24) and 500 nM paromomycin is depicted in FIG. 13. A 1:1 complex was observed between the paromomycin and the RNA consistent with specific aminoglycoside binding at the A-site. The insets show the measured and calculated isotope envelopes of the (M-5H+)5− species of the free RNA and the RNA-paromomycin complex. High precision mass measurements were acquired using isotope peaks of the (M-5H+)^5− and (M-4H^+)^4− charge states of the free RNA as internal mass standards and measuring the m/z difference between the free and bound RNA.\nESI-MS measurements of a solution containing a fixed concentration of RNA at different concentrations of ligand were obtained. By measuring the ratio of bound:unbound RNA at varying ligand concentrations, the Kd was determined by 1/slope of the “titration curve”. The MS derived value of 110 nM is in good agreement with previously reported literature value of 200 nM. […]"}, "18S A site model": {"system": "18S A site model", "experiment": "ESI-FTICR mass spectrometric (MASS) binding assay, mass-tagged 18S A-site 27-mer RNA model", "parameters": "species or system eukaryotic", "details": "aminoglycosides 500 nM each, mixture with untagged 16S and tagged 18S", "method": "as §1, with “The” for “The spectrum is calibrated using multiple isotope peaks of the (M-5H^+)^5− and (M-4H^+)^4− charge states of the free RNA as internal mass standards which brackets the m/z range in which complexes are observed. The”, “This post calibration scheme is easily automated which enables rapid, high precision mass measurements of affinity selected ligands against multiple targets in a high throughput mode.” left out"}}, "note": "Entries after “also recorded” stand apart in the source; their conditions may differ.", "data": [{"compound": "NC[C@H]1O[C@H](O[C@H]2[C@H](O)[C@@H](O[C@H]3O[C@H](CO)[C@@H](O)[C@H](N)[C@H]3O)[C@H](N)C[C@@H]2N)[C@H](N)C[C@@H]1O", "note": "[tobramycin]", "values": [{"measurement": "complexes observed with 16S (in words)", "setting": "16S A site 27mer RNA", "value": "reduced; also recorded: Weaker complexes"}]}, {"compound": "NC[C@H]1O[C@H](O[C@H]2[C@H](O)[C@@H](O[C@H]3O[C@H](CO)[C@@H](O)[C@H](N)[C@H]3O)[C@H](N)C[C@@H]2N)[C@H](N)[C@@H](O)[C@@H]1O", "note": "[bekanamycin]", "values": [{"measurement": "complexes observed with 16S (in words)", "setting": "16S A site 27mer RNA", "value": "reduced"}, {"measurement": "complexes observed with 16S (in words)", "setting": "16S A site 27mer RNA; listed as bekamycin", "value": "Weaker complexes"}]}, {"compound": "CN[C@@H]1[C@@H](O)[C@@H](O[C@@H]2[C@@H](O)[C@H](O[C@H]3OC(CN)=CC[C@H]3N)[C@@H](N)C[C@H]2N)OC[C@]1(C)O", "note": "[sisomicin]", "values": [{"measurement": "complexes observed with 16S (in words)", "setting": "16S A site 27mer RNA", "value": "reduced"}, {"measurement": "complexes observed with 16S (in words)", "setting": "16S A site 27mer RNA; listed as sisomycin", "value": "Weaker complexes"}]}, {"compound": "NC[C@@H]1O[C@H](O[C@H]2[C@@H](O)[C@H](O[C@@H]3[C@@H](O)[C@H](N)C[C@H](N)[C@H]3O[C@H]3O[C@H](CO)[C@@H](O)C[C@H]3N)O[C@@H]2CO)[C@H](N)[C@@H](O)[C@@H]1O[C@H]1O[C@H](CO)[C@@H](O)[C@H](O)[C@@H]1O", "note": "[lividomycin]", "values": [{"measurement": "Kd", "setting": "16S A site 27mer RNA; ESI-FTICR MS, 16S A site 27mer, read-out: MS-measured dissociation constant (KD)", "value": 28, "unit": "nM"}, {"measurement": "complexes observed with 16S (in words)", "setting": "16S A site 27mer RNA", "value": "High affinity complexes"}, {"measurement": "enhancement of binding affinity for 16S relative to paromomycin", "setting": "16S A site 27mer RNA; lividomycin vs paromomycin", "value": "~4", "unit": "fold"}, {"measurement": "complexes observed with 18S (in words)", "setting": "18S A site model", "value": "complete absence of complexes"}]}]}
